In PubChem BioAssay (NCI):
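Interpolation was linear, between the two tested concentrations surrounding the appropriate level; five concentrations were tested over 48 hours in 96-well plates. Abbreviation: GI50, concentration required for 50% inhibition of growth. TGI is the concentration that stops growth completely.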

Tests used:
Experiment in all cases: DTP human tumour cell line panel, 48 h
[1] = tested on: SK-MEL-5 melanoma
[2] = tested on: NCI-H226 lung
[3] = tested on: SF-268 CNS
[4] = tested on: SNB-75 CNS
[5] = tested on: OVCAR-5 ovarian
[6] = tested on: UO-31 renal
[7] = tested on: IGROV1 ovarian
[8] = tested on: M14 melanoma
[9] = tested on: OVCAR-4 ovarian
[10] = tested on: ACHN renal
[11] = tested on: HT29 colon
[12] = tested on: SNB-19 CNS
[13] = tested on: NCI-H460 lung
[14] = tested on: UACC-62 melanoma
[15] = tested on: K-562 leukemia
[16] = tested on: SR leukemia
[17] = tested on: MCF7 breast
[18] = tested on: CCRF-CEM leukemia
[19] = tested on: BT-549 breast
[20] = tested on: CAKI-1 renal
[21] = tested on: MDA-MB-231 breast
[22] = tested on: NCI/ADR-RES ovarian
[23] = tested on: 786-0 renal
[24] = tested on: SW-620 colon
[25] = tested on: TK-10 renal
[26] = tested on: EKVX NSCLC
[27] = tested on: DU-145 prostate
[28] = tested on: KM12 colon
[29] = tested on: LOX IMVI melanoma
[30] = tested on: U251 CNS
[31] = tested on: NCI-H23 lung
[32] = tested on: HCT-116 colon
[33] = tested on: HCC-2998 colon
[34] = tested on: A498 renal
[35] = tested on: HS 578T breast
[36] = tested on: SK-OV-3 ovarian
[37] = tested on: PC-3 prostate
[38] = tested on: SK-MEL-28 melanoma
[39] = tested on: OVCAR-8 ovarian
[40] = tested on: RXF 393 renal
[41] = tested on: NCI-H522 lung
[42] = tested on: RPMI-8226 leukemia
[43] = tested on: SF-539 CNS
[44] = tested on: SN12C renal
[45] = tested on: UACC-257 melanoma
[46] = tested on: MOLT-4 leukemia
[47] = tested on: MDA-MB-435
[48] = tested on: A549 NSCLC
[49] = tested on: HOP-62 NSCLC
[50] = tested on: MALME-3M melanoma
[51] = tested on: T-47D breast
[52] = tested on: SF-295 CNS
[53] = tested on: COLO 205 colon
[54] = tested on: HCT-15 colon

SMILES: C#C[C@]1(O)CC[C@H]2[C@@H]3CC=C4c5sc(N6CCN(C)CC6)nc5CC[C@]4(C)[C@H]3CC[C@@]21C
- GI50 [1]: 1740 nM
- TGI [1]: 3.2 µM
- GI50 [2]: 9.83 µM
- TGI [2]: 28.8 µM
- GI50 [3]: 2010 nM
- TGI [3]: 4.31 µM
- GI50 [4]: 1690 nM
- TGI [4]: 3.87 µM
- GI50 [5]: 1820 nM
- TGI [5]: 3.53 µM
- GI50 [6]: 1740 nM
- TGI [6]: 3.17 µM
- GI50 [7]: 1870 nM
- TGI [7]: 3.62 µM
- GI50 [8]: 1540 nM
- TGI [8]: 2970 nM
- GI50 [9]: 1940 nM
- TGI [9]: 4.02 µM
- GI50 [10]: 1790 nM
- TGI [10]: 3.25 µM
- GI50 [11]: 1760 nM
- TGI [11]: 4.18 µM
- GI50 [12]: 1810 nM
- TGI [12]: 3.75 µM
- GI50 [13]: 1990 nM
- TGI [13]: 3.8 µM
- GI50 [14]: 1790 nM
- TGI [14]: 3.42 µM
- GI50 [15]: 1340 nM
- TGI [15]: 4.5 µM
- GI50 [16]: 1560 nM
- TGI [16]: 5.39 µM
- GI50 [17]: 1830 nM
- TGI [17]: 3.8 µM
- GI50 [18]: 2230 nM
- TGI [18]: 4.74 µM
- GI50 [19]: 1900 nM
- TGI [19]: 3.95 µM
- GI50 [20]: 1560 nM
- TGI [20]: 3.08 µM
- GI50 [21]: 1930 nM
- TGI [21]: 3.73 µM
- GI50 [22]: 2180 nM
- TGI [22]: 5.71 µM
- GI50 [23]: 1700 nM
- TGI [23]: 3.15 µM
- GI50 [24]: 1810 nM
- TGI [24]: 3.45 µM
- GI50 [25]: 2360 nM
- TGI [25]: 4.55 µM
- GI50 [26]: 1840 nM
- TGI [26]: 3.83 µM
- GI50 [27]: 2230 nM
- TGI [27]: 5.13 µM
- GI50 [28]: 1920 nM
- TGI [28]: 4.08 µM
- GI50 [29]: 1700 nM
- TGI [29]: 3.33 µM
- GI50 [30]: 1510 nM
- TGI [30]: 2870 nM
- GI50 [31]: 1760 nM
- TGI [31]: 3.59 µM
- GI50 [32]: 1780 nM
- TGI [32]: 3.38 µM
- GI50 [33]: 2060 nM
- TGI [33]: 4.35 µM
- GI50 [34]: 4.25 µM
- TGI [34]: 16.9 µM
- GI50 [35]: 2420 nM
- TGI [35]: 8.44 µM
- GI50 [36]: 1680 nM
- TGI [36]: 3.18 µM
- GI50 [37]: 1610 nM
- TGI [37]: 3.07 µM
- GI50 [38]: 1680 nM
- TGI [38]: 3.19 µM
- GI50 [39]: 1810 nM
- TGI [39]: 3.41 µM
- GI50 [40]: 1420 nM
- TGI [40]: 3.05 µM
- GI50 [41]: 1480 nM
- TGI [41]: 3.3 µM
- GI50 [42]: 1600 nM
- TGI [42]: 4.16 µM
- GI50 [43]: 1450 nM
- TGI [43]: 2900 nM
- GI50 [44]: 1770 nM
- TGI [44]: 3.43 µM
- GI50 [45]: 1770 nM
- TGI [45]: 3.27 µM
- GI50 [46]: 1890 nM
- TGI [46]: 4.66 µM
- GI50 [47]: 1160 nM
- TGI [47]: 2530 nM
- GI50 [48]: 1830 nM
- TGI [48]: 3.39 µM
- GI50 [49]: 1710 nM
- TGI [49]: 3.27 µM
- GI50 [50]: 1760 nM
- TGI [50]: 3.28 µM
- GI50 [51]: 12.1 µM
- TGI [51]: 30.1 µM
- GI50 [52]: 1870 nM
- TGI [52]: 3.96 µM
- GI50 [53]: 1980 nM
- TGI [53]: 3.83 µM
- GI50 [54]: 1250 nM
- TGI [54]: 2930 nM
